Results from ChEMBL document CHEMBL1201862, “PubChem BioAssay data set” (2004).
Calls of active or inactive are those of the source.

Tests used:
[1] = inhibitors of SFLLRN-triggered platelet P-selectin exposure, dose response, cell-based, fluorescence, flow cytometry, human platelets (AID 2511); type: functional
[2] = molecular target: Luciferin 4-monooxygenase (Photinus pyralis, UniProt P08659); assay: firefly luciferase enzyme inhibitors, dose response, biochemical, luminescence (AID 1891)
[3] = Fluorescence Cell-Based Dose Response to Identify Inhibitors of Thrombin Receptor-Activating Peptide SFLLRN-Mediated P-Selectin Induction on Platelets. [Related pubchem assays: 1663 (Primary HTS), 1889 (retest at dose ), 1891 (counterscreen), 1678 (Project Summary)]; type: functional
[4] = Luminescence Cell-Based Dose Confirmation HTS to Identify Inhibitors of Platelet Dense Granule Release. [Related pubchem assays: 1663 (Primary HTS), 1678 (Summary of Project)]; type: functional
[5] = molecular target: T1, Voltage-gated N-type calcium channel alpha-1B subunit/Amyloid beta A4 precursor protein-binding family A member 1 (Homo sapiens, UniProt Q00975+Q02410); type: protein assay
T1 sequence (Q00975 whole entry, the tested form may be a part): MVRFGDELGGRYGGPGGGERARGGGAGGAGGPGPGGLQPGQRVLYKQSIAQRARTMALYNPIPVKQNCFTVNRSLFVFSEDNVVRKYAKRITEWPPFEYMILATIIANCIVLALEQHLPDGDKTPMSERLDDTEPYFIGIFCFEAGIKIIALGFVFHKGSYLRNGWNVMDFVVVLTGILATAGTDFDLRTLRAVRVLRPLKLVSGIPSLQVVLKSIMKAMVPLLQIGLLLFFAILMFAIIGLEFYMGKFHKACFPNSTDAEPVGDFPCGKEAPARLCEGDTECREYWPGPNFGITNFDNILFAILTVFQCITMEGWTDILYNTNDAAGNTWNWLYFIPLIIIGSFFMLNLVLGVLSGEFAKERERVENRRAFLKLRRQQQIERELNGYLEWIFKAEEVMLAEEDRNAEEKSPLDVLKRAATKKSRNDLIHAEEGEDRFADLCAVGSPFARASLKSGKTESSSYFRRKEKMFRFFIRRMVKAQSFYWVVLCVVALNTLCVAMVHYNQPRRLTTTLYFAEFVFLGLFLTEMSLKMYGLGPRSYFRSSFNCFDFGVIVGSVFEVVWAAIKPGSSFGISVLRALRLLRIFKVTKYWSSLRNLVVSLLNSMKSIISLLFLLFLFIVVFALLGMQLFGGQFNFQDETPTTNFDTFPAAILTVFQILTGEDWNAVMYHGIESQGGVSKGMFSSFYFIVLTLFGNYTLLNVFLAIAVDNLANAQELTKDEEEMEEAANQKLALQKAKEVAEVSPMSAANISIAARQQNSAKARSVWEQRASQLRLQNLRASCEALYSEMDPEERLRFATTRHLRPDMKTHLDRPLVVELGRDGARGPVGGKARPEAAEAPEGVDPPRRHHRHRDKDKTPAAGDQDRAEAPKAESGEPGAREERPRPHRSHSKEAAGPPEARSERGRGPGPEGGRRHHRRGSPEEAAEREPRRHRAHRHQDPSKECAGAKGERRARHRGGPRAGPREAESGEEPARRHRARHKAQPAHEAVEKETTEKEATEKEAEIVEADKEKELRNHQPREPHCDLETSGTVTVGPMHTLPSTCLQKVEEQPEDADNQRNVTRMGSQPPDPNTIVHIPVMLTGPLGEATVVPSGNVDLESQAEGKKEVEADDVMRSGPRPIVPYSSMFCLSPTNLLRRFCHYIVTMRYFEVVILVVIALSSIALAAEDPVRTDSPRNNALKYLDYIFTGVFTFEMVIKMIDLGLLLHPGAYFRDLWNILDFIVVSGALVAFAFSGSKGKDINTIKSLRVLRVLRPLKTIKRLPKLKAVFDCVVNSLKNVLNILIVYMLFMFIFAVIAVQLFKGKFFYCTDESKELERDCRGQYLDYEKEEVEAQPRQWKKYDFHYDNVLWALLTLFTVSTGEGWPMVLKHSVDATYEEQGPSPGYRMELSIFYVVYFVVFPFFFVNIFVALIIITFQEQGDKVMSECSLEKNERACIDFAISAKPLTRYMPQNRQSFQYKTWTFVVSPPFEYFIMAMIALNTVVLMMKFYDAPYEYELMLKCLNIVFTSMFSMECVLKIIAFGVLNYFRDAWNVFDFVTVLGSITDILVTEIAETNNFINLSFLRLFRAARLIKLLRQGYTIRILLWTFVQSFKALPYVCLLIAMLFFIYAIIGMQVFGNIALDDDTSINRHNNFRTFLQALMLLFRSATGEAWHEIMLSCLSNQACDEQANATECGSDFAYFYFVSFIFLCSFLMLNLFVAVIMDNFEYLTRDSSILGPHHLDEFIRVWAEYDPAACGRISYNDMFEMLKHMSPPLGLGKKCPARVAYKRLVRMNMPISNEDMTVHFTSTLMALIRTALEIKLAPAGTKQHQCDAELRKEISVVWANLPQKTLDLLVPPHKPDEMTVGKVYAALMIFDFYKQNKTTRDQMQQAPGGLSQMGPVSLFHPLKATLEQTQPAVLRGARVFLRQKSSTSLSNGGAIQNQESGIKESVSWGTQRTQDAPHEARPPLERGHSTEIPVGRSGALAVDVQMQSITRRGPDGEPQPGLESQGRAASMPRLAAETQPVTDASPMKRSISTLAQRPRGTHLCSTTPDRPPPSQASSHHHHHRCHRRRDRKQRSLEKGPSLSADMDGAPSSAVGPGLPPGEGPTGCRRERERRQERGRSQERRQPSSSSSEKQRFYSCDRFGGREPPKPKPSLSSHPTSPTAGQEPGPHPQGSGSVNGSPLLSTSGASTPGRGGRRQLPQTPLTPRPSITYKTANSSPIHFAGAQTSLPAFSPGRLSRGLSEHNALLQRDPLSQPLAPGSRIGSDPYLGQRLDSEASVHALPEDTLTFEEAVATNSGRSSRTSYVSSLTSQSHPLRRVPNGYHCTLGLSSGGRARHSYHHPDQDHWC
T1 sequence (Q02410 whole entry, the tested form may be a part): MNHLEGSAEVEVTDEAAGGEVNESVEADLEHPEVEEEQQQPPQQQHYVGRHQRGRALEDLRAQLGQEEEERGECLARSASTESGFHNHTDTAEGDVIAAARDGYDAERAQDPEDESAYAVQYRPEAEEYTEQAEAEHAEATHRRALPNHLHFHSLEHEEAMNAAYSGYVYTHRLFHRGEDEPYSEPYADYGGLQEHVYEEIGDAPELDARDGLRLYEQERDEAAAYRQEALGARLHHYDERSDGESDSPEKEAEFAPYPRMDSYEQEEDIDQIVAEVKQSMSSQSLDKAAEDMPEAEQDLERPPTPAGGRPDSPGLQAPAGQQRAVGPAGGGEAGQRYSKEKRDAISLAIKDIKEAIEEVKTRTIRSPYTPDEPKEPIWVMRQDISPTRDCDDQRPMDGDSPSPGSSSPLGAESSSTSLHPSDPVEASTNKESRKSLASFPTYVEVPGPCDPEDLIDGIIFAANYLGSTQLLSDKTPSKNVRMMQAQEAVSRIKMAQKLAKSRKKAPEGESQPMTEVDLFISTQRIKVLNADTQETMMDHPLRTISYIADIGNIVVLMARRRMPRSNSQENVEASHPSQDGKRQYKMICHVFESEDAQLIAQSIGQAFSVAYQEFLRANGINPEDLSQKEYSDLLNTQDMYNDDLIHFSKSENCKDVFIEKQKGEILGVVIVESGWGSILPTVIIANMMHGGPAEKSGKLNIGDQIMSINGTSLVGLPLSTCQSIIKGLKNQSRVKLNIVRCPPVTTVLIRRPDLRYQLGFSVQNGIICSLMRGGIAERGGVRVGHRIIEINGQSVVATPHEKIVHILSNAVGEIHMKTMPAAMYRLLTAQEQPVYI

[6] = molecular target: T2, RNA-binding protein pos-1 (Caenorhabditis elegans, UniProt G5EF15); assay: inhibitors of POS-1/mex-3 RNA binding, dose response, biochemical, fluorescence polarization (AID 1964);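 note: purified POS-1 fused to maltose binding protein made in E. coli; potency of compounds blocking POS-1 binding to fluorescent RNA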
T2 sequence (G5EF15 whole entry): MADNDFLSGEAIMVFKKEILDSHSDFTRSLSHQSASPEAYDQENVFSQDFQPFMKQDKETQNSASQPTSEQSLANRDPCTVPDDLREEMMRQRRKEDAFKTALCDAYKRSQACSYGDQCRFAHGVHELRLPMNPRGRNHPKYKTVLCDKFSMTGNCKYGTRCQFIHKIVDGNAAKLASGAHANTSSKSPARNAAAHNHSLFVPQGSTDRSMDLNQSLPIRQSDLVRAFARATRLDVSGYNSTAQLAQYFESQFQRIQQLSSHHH

[7] = molecular target: T3, Zinc finger protein mex-5 (Caenorhabditis elegans, UniProt Q9XUB2); assay: MEX-5/TCR-2 RNA interaction inhibitors, dose response, biochemical, C. elegans, fluorescence polarization (AID 1960)
T3 sequence (Q9XUB2 whole entry): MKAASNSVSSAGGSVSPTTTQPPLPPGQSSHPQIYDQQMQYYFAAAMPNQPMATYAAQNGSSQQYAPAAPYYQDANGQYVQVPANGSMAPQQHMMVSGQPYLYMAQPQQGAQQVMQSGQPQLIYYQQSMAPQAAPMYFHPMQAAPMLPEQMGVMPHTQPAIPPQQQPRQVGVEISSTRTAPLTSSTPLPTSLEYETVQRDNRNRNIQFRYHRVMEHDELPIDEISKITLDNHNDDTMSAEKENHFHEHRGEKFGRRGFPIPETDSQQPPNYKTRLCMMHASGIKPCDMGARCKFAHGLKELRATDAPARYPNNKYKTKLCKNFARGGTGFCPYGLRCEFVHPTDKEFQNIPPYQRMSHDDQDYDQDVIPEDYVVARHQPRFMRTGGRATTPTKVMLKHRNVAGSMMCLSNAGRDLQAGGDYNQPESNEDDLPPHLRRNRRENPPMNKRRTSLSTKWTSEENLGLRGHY

[8] = molecular target: T1, Voltage-gated N-type calcium channel alpha-1B subunit/Amyloid beta A4 precursor protein-binding family A member 1; type: protein assay; remark: listed apart in the source
[9] = molecular target: T4, Mannose-6-phosphate isomerase (Homo sapiens, UniProt P34949); assay: inhibitors of human PMI, primary screen, biochemical, fluorescence intensity, coupled assay (AID 1209)
T4 sequence (P34949 whole entry): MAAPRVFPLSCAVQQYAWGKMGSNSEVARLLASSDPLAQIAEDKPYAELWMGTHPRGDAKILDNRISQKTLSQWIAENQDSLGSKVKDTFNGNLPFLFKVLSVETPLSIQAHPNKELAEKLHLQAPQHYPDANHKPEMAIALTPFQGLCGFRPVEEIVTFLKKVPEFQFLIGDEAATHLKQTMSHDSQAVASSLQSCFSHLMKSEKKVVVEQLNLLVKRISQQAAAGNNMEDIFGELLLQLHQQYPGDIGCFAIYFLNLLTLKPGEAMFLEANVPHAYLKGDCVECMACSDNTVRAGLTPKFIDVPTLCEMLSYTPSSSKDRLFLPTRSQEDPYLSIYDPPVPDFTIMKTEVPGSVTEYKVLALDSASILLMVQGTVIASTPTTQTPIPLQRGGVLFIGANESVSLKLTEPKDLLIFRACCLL

[10] = molecular target: 5-hydroxytryptamine receptor 1E (Homo sapiens, UniProt P28566); assay: Counterscreen assay for S1P3 antagonists: Dose response cell-based high throughput screening assay to identify antagonists of the 5-Hydroxytryptamine Receptor Subtype 1E (5HT1E). [Related pubchem assays: 1429, 485 ]; type: functional
Chain of 5-hydroxytryptamine receptor 1E (P28566 whole entry): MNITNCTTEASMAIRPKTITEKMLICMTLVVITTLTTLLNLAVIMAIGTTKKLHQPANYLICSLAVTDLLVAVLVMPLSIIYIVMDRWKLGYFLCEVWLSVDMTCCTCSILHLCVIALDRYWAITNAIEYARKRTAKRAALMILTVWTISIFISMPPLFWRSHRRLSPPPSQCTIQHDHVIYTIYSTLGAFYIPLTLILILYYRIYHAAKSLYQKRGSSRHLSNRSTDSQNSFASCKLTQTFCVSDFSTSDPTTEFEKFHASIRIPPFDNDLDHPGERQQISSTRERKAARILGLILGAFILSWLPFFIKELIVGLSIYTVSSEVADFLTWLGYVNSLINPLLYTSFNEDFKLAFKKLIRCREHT

[11] = molecular target: T5, Short transient receptor potential channel 4 (Mus musculus, UniProt Q9QUQ5); assay: mouse TRPC4 channel activators, dose response, cell-based, HEK293 TRPC4/mu-opioid, Fluo-4 calcium (AID 434937); type: functional
T5 sequence (Q9QUQ5 whole entry): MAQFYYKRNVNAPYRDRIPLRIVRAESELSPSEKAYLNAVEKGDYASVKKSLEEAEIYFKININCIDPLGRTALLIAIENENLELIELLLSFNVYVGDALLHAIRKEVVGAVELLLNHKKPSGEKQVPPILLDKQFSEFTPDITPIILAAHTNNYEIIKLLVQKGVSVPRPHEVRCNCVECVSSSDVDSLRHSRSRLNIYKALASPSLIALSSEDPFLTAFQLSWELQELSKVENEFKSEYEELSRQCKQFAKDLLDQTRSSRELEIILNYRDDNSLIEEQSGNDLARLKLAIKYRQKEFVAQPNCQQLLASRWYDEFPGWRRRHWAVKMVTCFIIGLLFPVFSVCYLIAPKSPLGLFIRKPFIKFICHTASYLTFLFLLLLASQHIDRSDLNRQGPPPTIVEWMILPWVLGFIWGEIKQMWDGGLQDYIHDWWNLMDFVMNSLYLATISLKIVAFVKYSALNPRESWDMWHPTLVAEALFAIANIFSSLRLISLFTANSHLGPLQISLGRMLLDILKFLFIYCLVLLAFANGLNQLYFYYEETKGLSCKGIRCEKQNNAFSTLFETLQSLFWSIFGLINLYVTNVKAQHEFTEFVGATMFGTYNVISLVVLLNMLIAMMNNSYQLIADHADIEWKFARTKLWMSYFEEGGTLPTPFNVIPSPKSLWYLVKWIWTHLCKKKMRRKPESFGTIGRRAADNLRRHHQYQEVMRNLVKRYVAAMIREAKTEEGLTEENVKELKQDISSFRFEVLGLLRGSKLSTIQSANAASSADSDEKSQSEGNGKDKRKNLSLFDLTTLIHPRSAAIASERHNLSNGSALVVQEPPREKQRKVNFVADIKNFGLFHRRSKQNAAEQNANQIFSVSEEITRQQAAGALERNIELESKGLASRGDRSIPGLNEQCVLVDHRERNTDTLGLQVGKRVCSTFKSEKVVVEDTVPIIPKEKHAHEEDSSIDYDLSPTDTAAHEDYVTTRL

[12] = molecular target: Sphingosine 1-phosphate receptor 3 (Homo sapiens, UniProt Q99500); assay: Dose response cell-based high throughput screening assay for antagonists of the Sphingosine 1-Phosphate Receptor 3 (S1P3). [Related pubchem assays: 1429, 485 ]; type: functional
Chain of Sphingosine 1-phosphate receptor 3 (Q99500 whole entry): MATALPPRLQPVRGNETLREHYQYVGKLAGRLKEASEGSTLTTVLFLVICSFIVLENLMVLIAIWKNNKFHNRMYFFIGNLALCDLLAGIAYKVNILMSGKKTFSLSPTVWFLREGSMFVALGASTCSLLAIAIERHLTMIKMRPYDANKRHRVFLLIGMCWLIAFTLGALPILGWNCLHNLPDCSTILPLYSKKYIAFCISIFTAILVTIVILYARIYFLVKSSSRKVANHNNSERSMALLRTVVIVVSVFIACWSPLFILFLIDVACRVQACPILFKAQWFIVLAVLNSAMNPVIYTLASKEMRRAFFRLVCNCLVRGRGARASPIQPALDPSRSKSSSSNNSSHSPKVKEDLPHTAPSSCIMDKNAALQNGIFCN

[13] = molecular target: T6, Replicative DNA helicase DnaB (Mycobacterium tuberculosis, UniProt P9WMR3); assay: DnaB intein splicing inhibitors, dose response, biochemical, cell-free fluorescence (AID 449749); type: functional
T6 sequence (P9WMR3 whole entry): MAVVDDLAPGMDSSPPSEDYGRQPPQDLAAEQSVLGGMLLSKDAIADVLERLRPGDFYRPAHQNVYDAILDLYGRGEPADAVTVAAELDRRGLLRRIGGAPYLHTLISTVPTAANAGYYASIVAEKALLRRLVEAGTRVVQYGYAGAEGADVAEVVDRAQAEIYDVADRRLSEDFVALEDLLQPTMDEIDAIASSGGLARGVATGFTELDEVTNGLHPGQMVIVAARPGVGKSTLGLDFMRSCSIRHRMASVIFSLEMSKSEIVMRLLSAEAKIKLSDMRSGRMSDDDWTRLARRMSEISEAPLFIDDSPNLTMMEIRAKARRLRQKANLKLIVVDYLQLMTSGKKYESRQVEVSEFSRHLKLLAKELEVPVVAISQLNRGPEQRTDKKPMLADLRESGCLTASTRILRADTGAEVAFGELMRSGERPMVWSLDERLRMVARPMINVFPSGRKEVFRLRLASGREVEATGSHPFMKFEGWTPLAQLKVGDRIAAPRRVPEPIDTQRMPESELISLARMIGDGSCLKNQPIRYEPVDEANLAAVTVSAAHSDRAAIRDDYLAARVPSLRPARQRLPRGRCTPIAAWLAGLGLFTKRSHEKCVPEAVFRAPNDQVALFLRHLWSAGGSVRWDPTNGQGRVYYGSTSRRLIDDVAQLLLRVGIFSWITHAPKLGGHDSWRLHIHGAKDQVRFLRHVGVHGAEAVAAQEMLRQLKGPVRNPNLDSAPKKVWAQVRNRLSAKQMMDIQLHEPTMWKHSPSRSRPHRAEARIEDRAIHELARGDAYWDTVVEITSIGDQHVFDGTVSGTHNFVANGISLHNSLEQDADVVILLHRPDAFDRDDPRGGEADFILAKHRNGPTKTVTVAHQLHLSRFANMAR

Bcl-2-like protein 1 = Bcl-2-like protein 1 (Homo sapiens, UniProt Q07817); assay: BCL-XL inhibitors, dose response, selectivity assay for MCL1 inhibitor project, biochemical, fluorescence polarization, 1536-well (AID 2218)
Chain of Bcl-2-like protein 1 (Q07817 whole entry): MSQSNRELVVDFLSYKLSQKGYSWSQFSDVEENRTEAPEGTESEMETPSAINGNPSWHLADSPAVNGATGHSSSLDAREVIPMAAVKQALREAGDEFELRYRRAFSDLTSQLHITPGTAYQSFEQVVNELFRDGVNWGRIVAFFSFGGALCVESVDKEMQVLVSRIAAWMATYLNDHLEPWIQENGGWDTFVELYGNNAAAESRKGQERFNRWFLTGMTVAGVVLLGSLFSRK

[14] = molecular target: Induced myeloid leukemia cell differentiation protein Mcl-1 (Homo sapiens, UniProt Q07820); assay: MCL1-BIM BH3 interaction inhibitors, dose response, biochemical, fluorescence polarization, BIM-BH3 peptide, 1536-well (AID 2217)
Chain of Induced myeloid leukemia cell differentiation protein Mcl-1 (Q07820 whole entry): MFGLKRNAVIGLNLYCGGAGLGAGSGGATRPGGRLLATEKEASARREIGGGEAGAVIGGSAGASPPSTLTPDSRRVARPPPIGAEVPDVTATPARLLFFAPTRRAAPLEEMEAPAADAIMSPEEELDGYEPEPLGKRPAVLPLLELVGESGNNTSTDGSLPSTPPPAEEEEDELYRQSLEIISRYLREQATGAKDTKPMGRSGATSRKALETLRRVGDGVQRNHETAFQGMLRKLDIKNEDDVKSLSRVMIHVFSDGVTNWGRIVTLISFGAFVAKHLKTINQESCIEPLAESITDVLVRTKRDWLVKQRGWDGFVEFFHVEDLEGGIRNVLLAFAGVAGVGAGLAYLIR

Protein RecA = molecular target: T7, Protein RecA (Mycobacterium tuberculosis, UniProt P9WHJ3); assay: Fluorescence Cell-Free Homogeneous Dose Retest to Identify Inhibitors of RecA-Intein Splicing Activity. [Related pubchem assays (depositor defined):AID2097, AID2223, AID489010, AID492950]; type: functional
T7 sequence (P9WHJ3 whole entry): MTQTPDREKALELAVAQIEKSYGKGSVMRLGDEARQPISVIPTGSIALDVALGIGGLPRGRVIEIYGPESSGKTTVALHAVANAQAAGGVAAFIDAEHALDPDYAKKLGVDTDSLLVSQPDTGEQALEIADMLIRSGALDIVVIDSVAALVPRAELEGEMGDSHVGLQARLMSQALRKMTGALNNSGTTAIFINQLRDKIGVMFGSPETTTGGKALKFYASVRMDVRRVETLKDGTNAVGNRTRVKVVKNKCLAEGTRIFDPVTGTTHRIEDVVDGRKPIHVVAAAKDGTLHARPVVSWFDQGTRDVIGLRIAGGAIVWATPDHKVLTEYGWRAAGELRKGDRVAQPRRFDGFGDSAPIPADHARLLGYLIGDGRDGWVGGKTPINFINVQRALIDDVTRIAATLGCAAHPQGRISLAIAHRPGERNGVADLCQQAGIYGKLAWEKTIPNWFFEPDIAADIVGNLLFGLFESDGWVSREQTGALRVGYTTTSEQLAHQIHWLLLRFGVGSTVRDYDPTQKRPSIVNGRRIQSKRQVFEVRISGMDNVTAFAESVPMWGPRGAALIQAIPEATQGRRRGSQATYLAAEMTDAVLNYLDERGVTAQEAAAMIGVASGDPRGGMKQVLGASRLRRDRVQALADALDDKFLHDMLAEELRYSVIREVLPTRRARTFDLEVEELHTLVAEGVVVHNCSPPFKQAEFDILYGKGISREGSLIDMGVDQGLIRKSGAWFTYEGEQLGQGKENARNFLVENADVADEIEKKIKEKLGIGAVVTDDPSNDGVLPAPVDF

NADPH oxidase 1 = NADPH oxidase 1 (Homo sapiens, UniProt Q9Y5S8); assay: Luminescence-based cell-based dose response assay to identify inhibitors of NADPH oxidase 1 (NOX1).; type: functional
Chain of NADPH oxidase 1 (Q9Y5S8 whole entry): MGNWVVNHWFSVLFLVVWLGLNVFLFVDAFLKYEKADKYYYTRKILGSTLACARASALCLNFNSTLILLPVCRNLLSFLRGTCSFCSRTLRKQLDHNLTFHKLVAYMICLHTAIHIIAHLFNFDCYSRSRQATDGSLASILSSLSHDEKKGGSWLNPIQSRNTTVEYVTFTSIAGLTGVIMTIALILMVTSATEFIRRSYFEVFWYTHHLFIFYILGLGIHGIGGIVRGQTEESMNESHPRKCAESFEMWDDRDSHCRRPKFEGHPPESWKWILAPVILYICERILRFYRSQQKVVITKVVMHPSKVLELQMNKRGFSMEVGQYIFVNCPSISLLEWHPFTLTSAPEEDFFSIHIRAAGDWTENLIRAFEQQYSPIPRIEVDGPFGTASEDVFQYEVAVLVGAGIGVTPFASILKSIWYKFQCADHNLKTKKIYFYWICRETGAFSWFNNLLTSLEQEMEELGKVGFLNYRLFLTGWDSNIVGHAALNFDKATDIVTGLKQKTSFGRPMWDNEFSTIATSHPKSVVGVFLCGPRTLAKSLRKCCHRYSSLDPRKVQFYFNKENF

O=C(Nc1cccc(NC(=O)c2ccccc2Cl)c1)c1ccco1
EC50 [1]: < 0.3 µM (active) | EC50 [2]: > 112 µM (not active) | EC50 [3]: < 1 µM (active) | EC50 [4]: 5.86 µM (active)

NC1=CC(=O)c2cccc3cccc1c23
IC50 [5]: > 50 µM (inactive) | EC50 [6]: 7.46 µM (inconclusive) | EC50 [7]: 1.98 µM (inconclusive) | IC50 [8]: 12.7 µM (active) | IC50 [9]: 16.7 µM (active)

O=C(CCCN1CCC2(CC1)C(=O)NCN2c1ccccc1)c1ccc(F)cc1 [SPIPERONE]
IC50 [10]: > 50 µM (not active) | EC50 [11]: 6.68 µM (active) | IC50 [12]: > 50 µM (not active)

CC(=O)OCCCNc1cc(SCc2ccco2)c2nonc2c1[N+](=O)[O-]
AC50 [13]: 4.6 µM (active) | IC50 (Bcl-2-like protein 1): > 109 µM (not active) | IC50 [14]: > 36.3 µM (not active) | EC50 (Protein RecA): 3.49 µM (active)

CC(=O)N1c2ccccc2Sc2ccccc21
IC50 (NADPH oxidase 1): 4.57 µM (active)
